From patent publication US9067920B2, “Compounds useful for inhibiting Chk1” (Eli Lilly and Company, priority 2010, dated 2015)
Structures can show the parent of a compound that is named as a salt.

Test system: HT-29 colon carcinoma cells
Test: ECtfs (two-fold sensitization) assay, gemcitabine potentiation, MTS
Assay type: cell-based
Protocol: An inhibitor of Chk1 can potentiate the anti-proliferative activity of gemcitabine (or other cytotoxics) through abrogation of the intra-S phase checkpoint, resulting in sustained and increased DNA damage. The capacity for continued tumor cell proliferation after DNA damage can be analyzed by determining the ability of cells to replicate their DNA. […] In this assay, cells are treated with a dilution series of gemcitabine, and then 22 h later with the compound of Example 3, After an additional 44 h, the relative cell number is assessed by a MTS (3-(4,5-dimethylthiazol-2-yl)-5-(3-carboxymethoxyphenyl)-2-(4-sulfophenyl)-2H-tetrazolium) dye reduction assay. The ECtfs parameter is a measure of the concentration of a Chk1 inhibitor necessary to reduce by half the (1190 concentration of gemcitabine, measured in this assay in the absence of Chk1 inhibition. HT-29 cells (obtained from ATCC), are grown in RPMI 1640 plus 10% (v/v) heat inactivated FBS, The cells are plated at 2.5×10^3 per well, in a volume of 100 μL on 96-well tissue culture plates and incubated for 24 h. Gemcitabine dilutions are prepared at 6× concentrations in McCoy's 5A medium (modified) (1×) and added to wells at 20 μper well. Gemcitabine dilutions were set up with the highest final concentration of gemcitabine being 1.0 μM and dilutions made by three-fold steps to 0.5 nM.
Chk1 Inhibitor is prepared by dilutions in DMSO to 4000× final concentration, and then diluted 666-fold into McCoy's medium to generate 6× stocks. Chk1 inhibitor dilutions proceed by 2.5-fold steps starting at 25 nM down to 0.3 nM. Twenty-two hours 1.0 after gemcitabine addition, Chk1, inhibitor is added in a volume of 24 μL to wells containing 120 μL of medium plus gemcitabine. Each gemcitabine dilution receives a single Chk1 inhibitor dilution. Control wells received DMSO, gemcitabine, or Chk1 inhibitor alone. Forty-four hours after addition of Chk1 inhibitor, 30 μL of CellTiter 96® AQueous assay reagent, is added to each well and held at room temperature for 1 hour and 45 minutes. Absorbance is read on a SpectraMax 250 (Molecular Devices) spectrophotometer at 490 nm. Data from the SpectraMax spectrophotometer are analyzed with GraphPad Prism 4.0. First, an averaged no cell control absorbance is subtracted from all other values in the matrix of data from each plate. Next, duplicate data points are averaged. Data are normalized for each Chk1 inhibitor concentration, with 0% cell number set as corrected A490=0, and 100% cell number set as the 0 nM gemcitabine mean value. […] Gemcitabine concentrations are converted to log concentrations, and normalized cell number values are converted to percent inhibition (percent inhibition=1.00-normalized value). Transformed data are plotted, and a non-linear regression is run to estimate an IC50 value for gemcitabine at each Chk1 inhibitor concentration. The nonlinear regression is calculated allowing the slope to vary, and without constraints for the top or bottom of the dose-response curves. The ECtfs value is calculated as follows: GI50 values for gemcitabine for each Chk1 inhibitor concentration are determined, plotted, and the concentration of Chk1 inhibitor necessary to decrease the gemcitabine alone GI50 by two-fold is determined by interpolation.
Compounds within the scope of the invention are tested in this assay run substantially as above. For example, the compound of Example 3 is tested and found to have an ECtfs value of 1.0 nM (SE=0.1, n=3). […]

In the case of `COc1nc(C)ccc1-c1cc(Nc2cncc(O[C@@H]3CCCNC3)n2)[nH]n1` [Example 3, (R)-[5-(2-Methoxy-6-methyl-pyridin-3-yl)-2H-pyrazol-3-yl]-[6-(piperidin-3-yloxy)-pyrazin-2-yl]-amine acetic acid salt], the “decrease of the EC50 of gemcitabine” value (HT-29 cells, 25 nM of the compound) is reported as 7 fold, the ECtfs value (HT-29 cells, concentration that decreases the gemcitabine GI50 two-fold) is reported as 1.0 nM and the “effect on the proliferation of HT-29 cells” value (compound alone, 25 nM) is reported as “little effect”.
